# Test results taken from publication PMC6777825, “Differential scanning fluorimetric analysis of the amino-acid binding to taste receptor using a model receptor protein, the ligand-binding domain of fish T1r2a/T1r3” (PLoS ONE, 2019).
# Like-named read-outs stand apart in the source and are kept apart here.
# What was measured:
# [1] = molecular target: T1, T1r2a/T1r3 full-length receptor (Oryzias latipes, UniProt A0A173M094+A0A173M0G2); design: method as in PMID 28534491; conditions: ref [11]; cited from earlier work
# medaka T1r2a/T1r3LBD = medaka T1r2a/T1r3LBD (Oryzias latipes, UniProt A0A173M094+A0A173M0G2); test: Differential scanning fluorimetry (DSF) thermal shift ligand-binding assay; design: species or system O. latipes; conditions: for ΔTm: average ± s.e.m., n = 4; for effect on thermal stability / Tm shift of T1r2a/T1r3LBD (in words): DSF, 0.1-10 mM amino acid
# Description: The protein sample was prepared as described previously. Briefly, Drosophila S2 cells (Invitrogen) stably expressing C-terminal FLAG-tagged T1r2aLBD and T1r3LBD [11, 21] were cultured in ExpressFiveSFM (LifeTechnologies) for five days at 27 °C. The T1r2a/T1r3-LBD protein was purified from the culture medium by the use of ANTI-FLAG M2 Affinity Gel (SIGMA). The purified protein was dialyzed against the assay buffer (20 mM Tris-HCl, 300 mM NaCl, 2 mM CaCl2, pH 8.0).
# The protein sample (~1 μg) was mixed with Protein Thermal Shift Dye (Applied Biosystems) and 10~10,000 μM concentration of each amino acid in 20 μL of assay buffer and loaded to a MicroAmpR Fast Optical 48-Well Reaction Plate (Applied Biosystems). Specifically, to minimize the changes of the chemical and optical condition, the amino acid solutions were prepared by the exact same buffer used for the final dialysis of the protein, followed by the re-adjustment of the pH to ~ 8.0 by addition of either NaOH or HCl, and mixed with the protein diluted with the same buffer.
# Fluorescent intensity was measured by the StepOne Real-Time PCR System (Applied Biosystems). The temperature was raised from 25 °C to 99 °C with a velocity of 0.022 °C/sec. The reporter and quencher for detection were set as “ROX” and “none”, respectively. Apparent melting transition temperature (Tm) was determined by the use of the maximum of the derivatives of the melt curve (dFluorescence/dT) by Protein Thermal Shift Software version 1.3 (Applied Biosystems).
# The apparent dissociation constant (Kd-app) derived from the DSF results was estimated based on Eq 1 proposed by Schellman, assuming that the unfolding of the protein is reversible: ΔTm=Tm−T0=TmT0R/ΔH^0ln(1+[L]/Kd-app) (1) where [L] is the ligand concentration; Tm and T0 are the apparent melting transition temperatures in the presence and absence of the ligand; R is the gas constant; ΔH^0 is the enthalpy of unfolding at T0, assuming that there are no significant variations under the tested conditions. If the melt curves show biphasic profiles, the second (or the right side) Tm values were adopted for calculation, as described in the Results section.
# For multiple regression analyses shown in Fig 2B, the apparent Tm values determined at different ligand concentrations were fitted to Eq 1 by using KaleidaGraph (Synergy Software), assuming that the change of the dissociation constant accompanied by the Tm shift is negligible.
# T1r2a/T1r3LBD = test system: T1r2a/T1r3LBD; design: method as in Nuemket, Yasui, et al. [11]; conditions: ref Nuemket, Yasui, et al. [11]; read-out: FRET EC50; cited from earlier work
# [2] = molecular target: T1, T1r2a/T1r3 full-length receptor; test: Ca2+-flux receptor response assay in Flip-In 293 cells stably expressing full-length T1r2a, T1r3 and Gα16-gust44; format: cell-based, O. latipes; conditions: for ΔRFU: average ± s.e.m.
# Description: The Ca^2+-flux assay was performed using Flip-In 293 cell line (Life Technologies) stably expressing full-length T1r2a, T1r3, and Gα16-gust44 as described previously. The response stimulated by either 5 or 10 mM amino acid was represented asΔRFU (delta relative fluorescence unit) defined as the maximum fluorescence intensity induced by the addition of the amino acid, subtracted with that of an assay buffer in the absence of amino acid.
# [3] = cited from earlier work; for Hydropathy Index: hydrophobicity/hydrophilicity, ref Kyte & Doolittle, J. Mol. Biol., 157, 105 (1982); for pI: ref Handbook of Chemistry and Physics, CRC Press; for logKd_CW (polarity): transfer from cyclohexane to an aqueous solution, ref Radzicka & Wolfenden, Biochemistry, 27, 1664 (1988); for Es'c (steric effects) / πα (hydrophobicity) / HP (hydration potential): α-substituent group; for Es'c (steric effects) / πα (hydrophobicity): ref Akamatsu et al., J. Pharm. Sci., 83, 1026 (1994); for HP (hydration potential): ref Wolfenden et al., Biochemistry, 20, 849 (1981)
# [4] = Tm at 8 or 9 ligand concentrations fitted to Eq 1 (Schellman), fitted parameter ± s.e., read-out: DSF Kd-app
# [5] = from ΔTm at 10 mM via Eq 1, T0 326.1 K, ΔH0 72.1 kcal mol-1, read-out: Kd-app estimated at a single ligand concentration
# [6] = log 1/Kd-app, converted from S1 Table values (10 mM; L-Ala 1 mM, L-Gln 0.1 mM)
# [7] = 5 mM amino acid, n = 6 (n = 12 for L-glutamine)
# [8] = estimated from ΔRFU at 5 mM by Hill equation, ΔRFUmax 104.3, read-out: EC50-est
# [9] = estimated from ΔRFU at 10 mM by Hill equation, ΔRFUmax 104.3, read-out: EC50-est
# [10] = from response at 5 mM, log 1/EC50-est
# [11] = from response at 10 mM, log 1/EC50-est
# [12] = read-out: Kd-app estimated at a single ligand concentration, from ΔTm at 0.1 mM via Eq 1, T0 326.1 K, ΔH0 72.1 kcal mol-1
# [13] = read-out: Kd-app estimated at a single ligand concentration, from ΔTm at 1 mM via Eq 1, T0 326.1 K, ΔH0 72.1 kcal mol-1
# [14] = read-out: Kd-app estimated at a single ligand concentration, from ΔTm at 10 mM via Eq 1, T0 326.1 K, ΔH0 72.1 kcal mol-1
# [15] = from response at 10 mM, log 1/EC50-est, read-out: pEC50-est (converted)
# [16] = from ΔTm at 0.1 mM via Eq 1, T0 326.1 K, ΔH0 72.1 kcal mol-1, read-out: Kd-app estimated at a single ligand concentration
# [17] = from ΔTm at 1 mM via Eq 1, T0 326.1 K, ΔH0 72.1 kcal mol-1, read-out: Kd-app estimated at a single ligand concentration
# Sequence of medaka T1r2a/T1r3LBD (A0A173M094 entry or part of it): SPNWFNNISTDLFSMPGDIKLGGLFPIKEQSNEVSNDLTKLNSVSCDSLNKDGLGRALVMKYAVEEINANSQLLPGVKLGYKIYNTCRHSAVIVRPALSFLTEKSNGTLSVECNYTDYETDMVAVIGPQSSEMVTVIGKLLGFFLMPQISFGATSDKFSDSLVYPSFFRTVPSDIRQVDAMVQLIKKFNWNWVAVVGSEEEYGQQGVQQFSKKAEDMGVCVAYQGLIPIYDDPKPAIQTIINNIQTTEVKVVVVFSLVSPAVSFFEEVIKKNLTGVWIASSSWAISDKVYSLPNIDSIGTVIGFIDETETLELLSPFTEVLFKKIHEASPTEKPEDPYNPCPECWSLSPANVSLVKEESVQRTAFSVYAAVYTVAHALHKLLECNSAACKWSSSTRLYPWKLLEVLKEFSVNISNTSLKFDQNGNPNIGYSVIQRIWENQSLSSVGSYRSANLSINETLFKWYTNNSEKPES
# Sequence of medaka T1r2a/T1r3LBD (A0A173M0G2 entry or part of it): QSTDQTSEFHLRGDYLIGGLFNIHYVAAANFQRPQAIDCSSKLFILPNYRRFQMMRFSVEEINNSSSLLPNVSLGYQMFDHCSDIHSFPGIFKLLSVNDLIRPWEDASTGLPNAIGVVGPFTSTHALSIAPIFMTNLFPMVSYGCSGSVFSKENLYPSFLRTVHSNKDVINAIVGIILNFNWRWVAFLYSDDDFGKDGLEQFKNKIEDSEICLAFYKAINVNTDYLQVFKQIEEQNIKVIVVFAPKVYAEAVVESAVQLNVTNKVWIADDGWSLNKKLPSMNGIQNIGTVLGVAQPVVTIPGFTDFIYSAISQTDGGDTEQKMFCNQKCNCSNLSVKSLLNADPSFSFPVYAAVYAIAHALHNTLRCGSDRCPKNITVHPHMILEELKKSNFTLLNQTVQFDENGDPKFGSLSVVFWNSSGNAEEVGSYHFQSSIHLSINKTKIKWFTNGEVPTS
# T1 sequence (A0A173M0G2 entry or part of it): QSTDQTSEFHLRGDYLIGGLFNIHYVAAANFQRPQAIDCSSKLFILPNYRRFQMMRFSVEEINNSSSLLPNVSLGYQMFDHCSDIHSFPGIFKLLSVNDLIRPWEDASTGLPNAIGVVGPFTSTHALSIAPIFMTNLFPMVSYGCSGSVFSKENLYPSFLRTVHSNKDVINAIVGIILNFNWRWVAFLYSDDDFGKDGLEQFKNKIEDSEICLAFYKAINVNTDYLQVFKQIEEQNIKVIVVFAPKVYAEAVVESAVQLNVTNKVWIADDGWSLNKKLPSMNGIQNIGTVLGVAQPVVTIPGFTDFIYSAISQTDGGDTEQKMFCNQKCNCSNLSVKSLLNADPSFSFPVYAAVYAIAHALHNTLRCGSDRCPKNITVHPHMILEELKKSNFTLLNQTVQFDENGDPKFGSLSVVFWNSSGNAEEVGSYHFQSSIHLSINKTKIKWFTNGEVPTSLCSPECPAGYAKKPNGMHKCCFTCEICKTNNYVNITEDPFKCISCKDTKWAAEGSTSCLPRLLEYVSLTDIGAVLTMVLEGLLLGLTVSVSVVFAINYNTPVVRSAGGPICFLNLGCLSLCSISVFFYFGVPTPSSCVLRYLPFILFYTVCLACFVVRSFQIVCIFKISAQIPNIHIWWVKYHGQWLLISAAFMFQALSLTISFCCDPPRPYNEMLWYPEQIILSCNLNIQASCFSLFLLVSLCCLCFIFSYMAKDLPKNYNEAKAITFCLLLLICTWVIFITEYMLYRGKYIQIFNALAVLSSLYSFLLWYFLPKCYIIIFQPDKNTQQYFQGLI
# T1 sequence (A0A173M094 entry or part of it): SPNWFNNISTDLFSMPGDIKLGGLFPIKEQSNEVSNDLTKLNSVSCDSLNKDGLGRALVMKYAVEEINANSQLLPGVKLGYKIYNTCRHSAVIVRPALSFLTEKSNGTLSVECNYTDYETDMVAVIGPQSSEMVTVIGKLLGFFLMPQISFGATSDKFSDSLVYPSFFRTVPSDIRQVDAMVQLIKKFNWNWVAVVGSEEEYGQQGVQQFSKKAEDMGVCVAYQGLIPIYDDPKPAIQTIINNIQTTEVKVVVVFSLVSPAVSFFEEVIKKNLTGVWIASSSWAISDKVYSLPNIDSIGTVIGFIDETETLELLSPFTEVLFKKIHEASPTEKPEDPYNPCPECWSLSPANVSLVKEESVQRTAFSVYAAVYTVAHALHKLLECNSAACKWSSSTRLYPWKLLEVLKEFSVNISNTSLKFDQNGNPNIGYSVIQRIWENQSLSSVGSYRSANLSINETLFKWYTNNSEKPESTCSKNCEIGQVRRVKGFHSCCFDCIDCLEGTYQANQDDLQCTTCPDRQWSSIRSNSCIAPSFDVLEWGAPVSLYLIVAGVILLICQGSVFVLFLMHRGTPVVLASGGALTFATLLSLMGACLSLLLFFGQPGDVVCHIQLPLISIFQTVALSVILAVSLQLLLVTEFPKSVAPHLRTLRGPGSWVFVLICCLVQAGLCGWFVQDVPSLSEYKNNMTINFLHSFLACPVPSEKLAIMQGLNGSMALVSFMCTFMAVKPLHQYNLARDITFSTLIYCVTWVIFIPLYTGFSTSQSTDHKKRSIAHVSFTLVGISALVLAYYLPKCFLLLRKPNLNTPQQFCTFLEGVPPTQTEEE
ΔTm (medaka T1r2a/T1r3LBD; 0.1 mM amino acid) [K],ΔTm (medaka T1r2a/T1r3LBD; 1 mM amino acid) [K],ΔTm (medaka T1r2a/T1r3LBD; 10 mM amino acid) [K],potency estimated from few doses (medaka T1r2a/T1r3LBD; [5]) [µM],pKd-app (medaka T1r2a/T1r3LBD; [6]),"ΔRFU [2, 7]","ΔRFU ([2]; 10 mM amino acid, n = 6)","EC50 [2, 8] [mM]","EC50 [2, 9] [mM]","pEC50-est [2, 11]",potency estimated from few doses (medaka T1r2a/T1r3LBD; [16]) [µM],Structure (SMILES),Kd (medaka T1r2a/T1r3LBD; [4]) [µM],EC50 (T1r2a/T1r3LBD) [µM],Hydropathy Index [3],pI [3],logKd_CW (polarity) [3],Es'c (steric effects) [3],πα (hydrophobicity) [3],HP (hydration potential) [3],also measured
–,–,–,–,–,–,–,–,–,–,–,NC(=O)CCC(N)C(=O)O (stereo in doubt) [D-glutamine],–,–,–,–,–,–,–,–,full-length receptor response (in words) [1]: significantly weak responses
-0.04 ± 0.12,-0.15 ± 0.07,5.08 ± 0.06,2220,2.65,13.4 ± 3.45,46.2 ± 9.00,33.8,12.6,1.90,–,"NCC(=O)O [Gly, glycine]",3570 ± 4090,6180 ± 3320,–,–,–,–,–,–,"pEC50-est [2, 10]: 1.47"
6.26 ± 0.06,10.80 ± 0.05,13.6 ± 0.02,119,–,104.3 ± 4.24,81.0 ± 4.64,–,2.88,–,14.1,"NC(=O)CC[C@H](N)C(=O)O [L-Gln, L-glutamine]",30.9 ± 5.8,11.5 ± 3.4,–,–,–,–,–,–,"increase of Tm (ΔTm), second Tm (medaka T1r2a/T1r3LBD; 300 μM ligand): 8.7 ± 0.1 °C; potency estimated from few doses (medaka T1r2a/T1r3LBD; [17]): 29.2 µM; Kd (medaka T1r2a/T1r3LBD; log 1/Kd-app, converted from S1 Table values (10 mM; L-Ala 1 mM, L-Gln 0.1 mM), read-out: pKd-app (converted)): 14.1 µM; ΔRFU ([2]; 5 mM amino acid, n = 6 (n = 12 for L-glutamine), listed as L-glutamine): 104.3; EC50 [2, 15]: 2.88 mM"
-0.14 ± 0.03,-1.20 ± 0.03,7.32 ± 0.06,956,3.02,11.5 ± 2.07,33.5 ± 7.59,40.5,21.1,1.67,–,N[C@@H](CO)C(=O)O [L-Ser],–,–,-0.8,5.68,2.49,-0.48,-0.19,-5.06,"pEC50-est [2, 10]: 1.39"
-0.06 ± 0.09,-1.27 ± 0.08,6.99 ± 0.09,1080,2.97,3.20 ± 1.51,18.2 ± 6.01,–,47.4,1.32,–,C[C@@H](O)[C@H](N)C(=O)O [L-Thr],–,–,-0.7,5.6,1.89,-0.73,0.07,-4.88,–
0.11 ± 0.24,-0.77 ± 0.14,7.85 ± 0.03,793,3.10,3.89 ± 1.23,32.4 ± 7.56,–,22.2,1.65,2630,CC(C)[C@H](N)C(=O)O [L-Val],–,–,4.2,5.96,-2.97,-1.29,1,1.99,–

Structure (SMILES),ΔTm (medaka T1r2a/T1r3LBD; 0.1 mM amino acid) [K],ΔTm (medaka T1r2a/T1r3LBD; 1 mM amino acid) [K],ΔTm (medaka T1r2a/T1r3LBD; 10 mM amino acid) [K],potency estimated from few doses (medaka T1r2a/T1r3LBD; [5]) [µM],pKd-app (medaka T1r2a/T1r3LBD; [6]),"ΔRFU [2, 7]","ΔRFU ([2]; 10 mM amino acid, n = 6)","EC50 [2, 8] [mM]","EC50 [2, 9] [mM]","pEC50-est [2, 11]",potency estimated from few doses (medaka T1r2a/T1r3LBD; [16]) [µM],Kd (medaka T1r2a/T1r3LBD; [4]) [µM],EC50 (T1r2a/T1r3LBD) [µM],Hydropathy Index [3],pI [3],logKd_CW (polarity) [3],Es'c (steric effects) [3],πα (hydrophobicity) [3],HP (hydration potential) [3],also measured
"C[C@H](N)C(=O)O [L-Ala, L-alanine]",0.41 ± 0.09,6.92 ± 0.03,11.1 ± 0.02,–,–,64.7 ± 12.8,90.8 ± 9.46,3.06,1.49,–,–,54.1 ± 24.5,141 ± 37,1.8,6,-1.33,-0.2,0.28,1.94,"effect on thermal stability / Tm shift of T1r2a/T1r3LBD (in words) (medaka T1r2a/T1r3LBD): exhibited large Tm shifts; Kd-app fold difference compared with FRET EC50 (medaka T1r2a/T1r3LBD; Kd-app from 0.1 mM): 4.71 fold; Kd-app fold difference compared with FRET EC50 (medaka T1r2a/T1r3LBD; Kd-app from 1 mM): 0.782 fold; Kd-app fold difference compared with FRET EC50 (medaka T1r2a/T1r3LBD; Kd-app from 10 mM): 1.91 fold; potency estimated from few doses (medaka T1r2a/T1r3LBD; [12]): 664 µM; potency estimated from few doses (medaka T1r2a/T1r3LBD; [13]): 110 µM; potency estimated from few doses (medaka T1r2a/T1r3LBD; [14]): 269 µM; EC50 ([2]; from response at 5 mM, log 1/EC50-est, read-out: pEC50-est (converted)): 3.09 mM; EC50 [2, 15]: 1.48 mM"
"N=C(N)NCCC[C@H](N)C(=O)O [L-Arg, arginine]",0.45 ± 0.17,6.98 ± 0.08,11.0 ± 0.05,–,–,68.2 ± 5.39,63.4 ± 9.85,–,–,–,–,–,190 ± 35,-4.5,10.76,4.32,-0.82,-0.42,-19.92,"Kd (medaka T1r2a/T1r3LBD; DSF Kd-app, Tm at 8 or 9 ligand concentrations fitted to Eq 1 (Schellman), fitted parameter ± s.e.): 131 ± 66 µM; effect on thermal stability / Tm shift of T1r2a/T1r3LBD (in words) (medaka T1r2a/T1r3LBD): thermally stabilized the protein; Kd-app fold difference compared with FRET EC50 (medaka T1r2a/T1r3LBD; Kd-app from 0.1 mM): 3.20 fold; Kd-app fold difference compared with FRET EC50 (medaka T1r2a/T1r3LBD; Kd-app from 1 mM): 0.568 fold; Kd-app fold difference compared with FRET EC50 (medaka T1r2a/T1r3LBD; Kd-app from 10 mM): 1.44 fold; Kd (medaka T1r2a/T1r3LBD; pKd-app, log 1/Kd-app, converted from S1 Table values (10 mM; L-Ala 1 mM, L-Gln 0.1 mM)): 275 µM; potency estimated from few doses (medaka T1r2a/T1r3LBD; [12]): 608 µM; potency estimated from few doses (medaka T1r2a/T1r3LBD; [13]): 108 µM; potency estimated from few doses (medaka T1r2a/T1r3LBD; [14]): 274 µM; EC50 ([2]; EC50-est, estimated from ΔRFU at 5 mM by Hill equation, ΔRFUmax 104.3): 2.65 mM; EC50 ([2]; EC50-est, estimated from ΔRFU at 10 mM by Hill equation, ΔRFUmax 104.3): 6.44 mM; EC50 ([2]; pEC50-est, from response at 5 mM, log 1/EC50-est): 2.63 mM; EC50 ([2]; pEC50-est, from response at 10 mM, log 1/EC50-est): 6.46 mM"
"N[C@@H](CCC(=O)O)C(=O)O [L-Glu, glutamate]",0.55 ± 0.26,0.48 ± 0.14,7.06 ± 0.08,1050,2.98,3.73 ± 1.63,30.3 ± 1.85,–,24.4,1.61,488,422 ± 211,1070 ± 382,–,3.22,2.25,-0.82,0.02,-10.2,potency estimated from few doses (medaka T1r2a/T1r3LBD; [17]): 5700 µM
